Reference: patent US20240316146A1, “METHODS OF REDUCING NEUROPATHY AND NEUROPATHIC SYMPTOMS AND TREATING CANCER” (Bexion Pharmaceuticals Inc., priority 2021, published 2024)
Values joined by “and” are separate entries in the source; they are usually repeats but may differ in a detail not shown here. Equal values may be shown once.

What was measured:
[1] = system: PC-12 cells; assay: Viable cell counts, PC-12 cells; assay type: cell-based, rat; conditions: for cell viability (in words): 2 μM oxaliplatin alone
Procedure: The neurostimulatory, neuroprotective, and neurotrophic qualities of the SapC-phospholipid formulation (BXQ-350) were tested in vitro in two cell lines, i.e., PC-12 cells (derived from a pheochromocytoma of a rat adrenal medulla) and NS20Y cells (cholinergic cell line derived from a mouse neuroblastoma).
PC-12 cells (ATCC, catalogue number CRL-1721) and NS20Y cells (Millipore Sigma, catalogue number 08062517) were seeded overnight in 24-well plates containing 1×10^4 cells per well in 1 mL of DMEM (Gibco, catalog number 11965-092) supplemented with 10% FBS and PenStrep. Each agent tested was brought to solution, at its appropriate concentrations, in a dosing media consisting of high glucose, no glutamine, no calcium DMEM (Gibco, catalog number 21068-028) supplemented with 4 mM glutamine, 1 mM calcium gluconate and PenStrep. […] The seeding medium was completely removed from the cells before the dosing medium containing the testing agents was added.
PC-12 cells (ATCC, catalogue number CRL-1721) and NS20Y cells (Millipore Sigma, catalogue number 08062517) were seeded overnight in 24-well plates containing 1×10^4 cells per well in 1 mL of DMEM (Gibco, catalog number 11965-092) supplemented with 10% FBS and PenStrep. Each agent tested was brought to solution, at its appropriate concentrations, in a dosing media consisting of high glucose, no glutamine, no calcium DMEM (Gibco, catalog number 21068-028) supplemented with 4 mM glutamine, 1 mM calcium gluconate and PenStrep. BXQ-350 was tested at concentrations between 5 nM and 1 μM concentration of SapC. The seeding medium was completely removed from the cells before the dosing medium containing the testing agents was added.
The viability of the cytotoxic drug+BXQ-350 combination groups was about 50% of the BXQ-350 alone group.

[2] = system: mouse oxaliplatin model of chemotherapy-induced neuropathy; assay: Thermal hypersensitivity, cold plate test, Study 2; conditions: Group B Oxaliplatin/Vehicle; for Latency to withdrawal behaviour in the cold plate test (15° C.): N 12
Procedure: (§1) Thermal hypersensitivity: Thermal hypersensitivity was assessed using a dynamic cold plate (Bioseb, France) set at a fixed temperature of 15° C. This method allows analysis of more integrated behaviors rather than reflex behaviors, e.g., the tail immersion test. In animal studies, thermal sensitivity is mostly evaluated based on nociceptive reaction latencies in response to a given thermal aversive stimulus. In this classical test, the temperature of the plate is fixed and remains constant: the latency to the first paw licking, jumps or withdrawal is taken as an index of nociceptive threshold. […] The results of the study are shown in Table 5 (raw data) below, Table 6 (summary) below, FIG. 4, and FIG. 5.
(§2) 60 adult male C57/BL6 mice (Charles River), 6-7 weeks of age, were housed in groups of 5 in Perspex cages, in a controlled environment of constant temperature and humidity (temperature: 21±1° C., light: dark cycle of 12:12 hours), with food and water available ad libitum. Animals were allowed to recover from transportation for at least one week before commencing experiments.
Thermal hypersensitivity: The same apparatus and protocol were used as for Study 1. The results of Study 2 are shown in Table 11 (raw data), Table 12 (summary), FIG. 8, and FIG. 9.

[3] = system: mouse oxaliplatin model of chemotherapy-induced neuropathy; assay: Static mechanical (tactile) allodynia, von Frey filaments, Study 2; assay type: in vivo; conditions: Study 2; oxaliplatin treated mice, days assessed; BXQ-350 2 and 10 mg/kg
Procedure: Static mechanical tactile allodynia: Static mechanical (tactile) allodynia was assessed by measurement of withdrawal threshold using calibrated (force; g) von-Frey monofilaments (Touch-Test Sensory Evaluator; Scientific Marketing Associates) applied to the plantar surface of the left hind-paw. The animals were placed in individual Perspex boxes on a raised metal mesh for 30-40 min before the test to habituate. A series of graduated von Frey hairs (0.07, 0.16, 0.4, 0.6 and 1 g) were applied in sequence with a protocol of 1 sec on 1 sec off repeated 10 times. Each hair was applied perpendicularly to the center of the ventral surface of the paw until it bent slightly. The force applied to the hind-paw of the animal to induce 5 responses out of 10 trials was recorded as paw withdrawal threshold (PWT) 50%.
as §2
Static mechanical tactile allodynia: The same apparatus and protocol were used as for Study 1.

[4] = system: mouse oxaliplatin model of chemotherapy-induced neuropathy; assay: Thermal hypersensitivity, cold plate test 15° C., Study 1; assay type: in vivo
Procedure: as §2, §1
Warm vials of BQX-350 were brought to room temperature and reconstituted with 4 mL water for injection via syringe. The vials were gently agitated and/or vortexed for 15-20 sec and allowed to sit at room temp for 5 mins. The rehydrated solution contained 2.2 mg/mL SapC (8.8 mg SapC per vial). About […] of the formulation was injected to achieve a target dose of 20 mg/kg in each mouse. Pregabalin was reconstituted in water and injected to achieve a target dose of 30 mg/kg in each mouse.
A two-way repeated measures ANOVA with ‘treatment’ as a between subjects effect, and ‘day’ as a within subjects effect was used (using GraphPad Prism version 9.0 for Windows, GraphPad Software, San Diego California USA), followed by Dunnett's multi comparisons test. Data is presented as mean±SEM.

[5] = Body weights, Study 2; assay type: in vivo, mouse; conditions: Group B Oxaliplatin/Vehicle, individual mice
Excerpt: Body Weights: The mice were weighed daily starting 1 day prior to treatment through day 9.

[6] = cold plate 15° C., oxaliplatin 10 mg/kg IP day 0 (+vehicle, BXQ-350 20 mg/kg IP or pregabalin 30 mg/kg IP), group mean

SMILES: O=C([O-])C(=O)[O-].[NH-][C@@H]1CCCC[C@H]1[NH-].[Pt+4] (relative stereo) [Oxaliplatin, cis-[(1R,2R)-1,2-cyclohexanediamine-N,N′][oxalato(2)-O,O′] platinum]
- cell viability (in words) [1]: negligible cell viability
- cell viability ([1]; 2 μM oxaliplatin alone (FIG. 12)): less than 1%
- cell viability (in words) ([1]; listed as oxaliplatin): severely reduces cell viability
- Individual latency to displaying withdrawal behaviour in the cold plate test ([2]; oxaliplatin 10 mg/kg i.p. day 0, D 3, individual mice): 18.8 s and 69.3 s and 84.0 s and 28.0 s and 19.9 s and 34.2 s and 36.8 s and 23.9 s and 77.7 s and 54.5 s
- Latency to withdrawal behaviour in the cold plate test (15° C.) ([2]; oxaliplatin 10 mg/kg i.p. day 0, D3, mean (SEM)): 42.933 + s
- Individual latency to displaying withdrawal behaviour in the cold plate test ([2]; oxaliplatin 10 mg/kg i.p. day 0, D 5, individual mice): 29.8 s and 12.7 s and 28.7 s and 18.6 s and 13.1 s and 25.5 s and 33.8 s and 17.4 s and 47.1 s and 16.4 s and 11.8 s and 43.8 s
- Latency to withdrawal behaviour in the cold plate test (15° C.) ([2]; oxaliplatin 10 mg/kg i.p. day 0, D5, mean (SEM)): 24.888 ? s
- Individual latency to displaying withdrawal behaviour in the cold plate test ([2]; oxaliplatin 10 mg/kg i.p. day 0, D 7, individual mice): 13.7 s and 22.3 s and 7.4 s and 28.4 s and 4.8 s and 23.9 s and 26.1 s and 29.6 s and 23.2 s and 26.3 s and 12.7 s and 44.2 s
- Latency to withdrawal behaviour in the cold plate test (15° C.) ([2]; oxaliplatin 10 mg/kg i.p. day 0, D7, mean (SEM)): 21.883 + s
- Individual latency to displaying withdrawal behaviour in the cold plate test ([2]; oxaliplatin 10 mg/kg i.p. day 0, D 9, individual mice): 25.2 s and 23.9 s and 39.0 s and 17.2 s and 18.4 s and 23.0 s and 35.0 s and 23.8 s and 12.7 s and 30.6 s and 6.4 s and 33.2 s
- Latency to withdrawal behaviour in the cold plate test (15° C.) ([2]; oxaliplatin 10 mg/kg i.p. day 0, D9, mean (SEM)): 24.033 + s
- Individual latency to displaying withdrawal behaviour in the cold plate test ([2]; oxaliplatin 10 mg/kg i.p. day 0, D −1, individual mice): 26.1 s and 32.9 s and 45.8 s and 42.4 s and 24.4 s and 53.7 s and 64.3 s and 91.7 s and 31.2 s and 45.0 s and 37.0 s and 33.4 s
- Latency to withdrawal behaviour in the cold plate test (15° C.) ([2]; oxaliplatin 10 mg/kg i.p. day 0, D −1, mean (SEM)): 43.992 + s
- Individual latency to displaying withdrawal behaviour in the cold plate test ([2]; oxaliplatin 10 mg/kg i.p. day 0, D −2, individual mice): 36.8 s and 63.0 s and 47.4 s and 35.8 s and 31.9 s and 42.2 s and 61.4 s and 63.3 s and 55.6 s and 41.5 s and 29.0 s and 36.7 s
- Latency to withdrawal behaviour in the cold plate test (15° C.) ([2]; oxaliplatin 10 mg/kg i.p. day 0, D −2, mean (SEM)): 45.383 + s
- Individual latency to displaying withdrawal behaviour in the cold plate test ([2]; oxaliplatin 10 mg/kg i.p. day 0, D −3, individual mice): 29.9 s and 35.1 s and 40.1 s and 49.9 s and 24.7 s and 30.0 s and 72.0 s and 50.6 s and 67.4 s and 55.6 s
- Latency to withdrawal behaviour in the cold plate test (15° C.) ([2]; oxaliplatin 10 mg/kg i.p. day 0, D −3, mean (SEM)): 44.183 + s
- paw withdrawal threshold (PWT) levels (in words) [3]: induced consistent and persistent mechanical allodynic response
- Latency (s) Baseline [4, 6]: 54.717 s
- Latency (s) D 3 [4, 6]: 25.583 s
- Latency (s) D 5 [4, 6]: 28.567 s
- Latency (s) D 7 [4, 6]: 32.475 s
- Latency (s) D 9 [4, 6]: 22.050 s
- Individual latency to displaying withdrawal behaviour in the cold plate test ([4]; oxaliplatin 10 mg/kg IP day 0 (+vehicle, BXQ-350 20 mg/kg IP or pregabalin 30 mg/kg IP), Baseline, individual mice): 45.4 s and 59.0 s and 48.3 s and 65.5 s and 80.0 s and 54.3 s and 46.2 s and 46.7 s and 46.5 s and 58.8 s and 48.6 s and 57.6 s
- Individual latency to displaying withdrawal behaviour in the cold plate test ([4]; oxaliplatin 10 mg/kg IP day 0 (+vehicle, BXQ-350 20 mg/kg IP or pregabalin 30 mg/kg IP), Day 3, individual mice): 22.9 s and 19.5 s and 25.9 s and 24.2 s and 30.2 s and 15.0 s and 31.3 s and 34.1 s and 22.0 s and 24.3 s and 35.5 s and 22.1 s
- Individual latency to displaying withdrawal behaviour in the cold plate test ([4]; oxaliplatin 10 mg/kg IP day 0 (+vehicle, BXQ-350 20 mg/kg IP or pregabalin 30 mg/kg IP), Day 5, individual mice): 30.3 s and 27.7 s and 39.8 s and 17.3 s and 31.1 s and 38.3 s and 24.5 s and 18.5 s and 16.0 s and 30.1 s and 33.9 s
- Individual latency to displaying withdrawal behaviour in the cold plate test ([4]; oxaliplatin 10 mg/kg IP day 0 (+vehicle, BXQ-350 20 mg/kg IP or pregabalin 30 mg/kg IP), Day 7, individual mice): 16.8 s and 45.9 s and 49.6 s and 37.6 s and 24.3 s and 28.8 s and 18.6 s and 23.0 s and 62.9 s and 31.8 s and 21.5 s and 28.9 s
- Individual latency to displaying withdrawal behaviour in the cold plate test ([4]; oxaliplatin 10 mg/kg IP day 0 (+vehicle, BXQ-350 20 mg/kg IP or pregabalin 30 mg/kg IP), Day 9, individual mice): 12.6 s and 13.6 s and 24.8 s and 23.1 s and 31.8 s and 20.9 s and 17.4 s and 25.0 s and 10.6 s and 19.4 s and 25.8 s
- thermal (cold) sensitivity, cold plate test (in words) ([4]; oxaliplatin treated animals, day 3 to day 9, BXQ-350 20 mg/kg, pregabalin 30 mg/kg 2 hours before assessment): increased thermal (cold) sensitivity
- Individual body weights ([5]; D 0): 26.0 g (2×) and 22.4 g and 23.6 g (2×) and 23.1 g and 24.5 g (2×) and 23.2 g and 24.6 g and 21.9 g and 26.1 g
- Individual body weights ([5]; D 1): 24.9 g (2×) and 21.1 g and 23.5 g (2×) and 22.5 g and 23.9 g and 23.7 g and 22.9 g and 23.0 g and 20.8 g and 25.4. g
- Individual body weights ([5]; D 2): 24.8 g and 21.3 g and 23.2 g (2×) and 22.3 g and 24.6 g and 23.8 g (2×) and 23.0 g and 23.6 g and 21.0 g and 25.0 g
- Individual body weights ([5]; D 3): 24.1 g and 22.4 g (2×) and 22.7 g and 22.2 g (2×) and 23.7 g and 23.0 g (2×) and 22.1 g and 20.6 g and 24.4 g
- Individual body weights ([5]; D 4): 25.0 g (2×) and 23.5 g (3×) and 23.1 g (2×) and 22.6 g and 23.7 g and 22.7 g and 21.3 g and 24.8 g
- Individual body weights ([5]; D 5): 25.2 g and 23.8 g and 22.8 g (2×)
- Individual body weights ([5]; D −1): 25.3 g and 21.8 g and 23.6 g and 22.9 g (3×) and 25.5 g and 23.8 g and 24.1 g and 24.3 g and 21.6 g and 26.1 g
- Individual body weights ([5]; D −2): 25.4 g (2×) and 21.9 g and 23.8 g (2×) and 23.3 g and 23.9 g and 23.0 g and 23.5 g and 24.1 g and 21.8 g and 25.2 g
- Individual body weights ([5]; D −3): 26.0 g (2×) and 22.0 g (2×) and 24.0 g (4×) and 23.0 g (2×) and 25.0 g (2×)
